Experimental findings from patent US10059688B2, “Protein tyrosine kinase modulators and methods of use” (BETTA PHARMACEUTICALS CO., LTD., priority 2013, dated 2018) are described below.

The subject of test [1] is H1975 (EGFR L858R/T790M) NSCLC cells. Description: Cell proliferation assay (MTS cell viability). The format is cell-based. The conditions noted are these: Homo sapiens, NCI-H1975, 72 h; H1975 cells, 3 days of exposure, MTS.
In test [2] the test system is HCC827 (EGFR Del) NSCLC cells. Nature of the test: Cell proliferation assay (MTS cell viability). The test is classed as cell-based. The conditions noted are these: Homo sapiens, 72 h; HCC827 cells, 3 days of exposure, MTS.

Each structure is given as a SMILES string.

A word on the IC50: it is the point on the concentration scale where inhibition reaches its midpoint. A lower IC50 goes with inhibition by little substance. Regarding `CCC(=O)N1CCN(c2ccc(Nc3ncc(Cl)c(Nc4ccccc4C(=O)C(=O)NC)n3)c(OC)c2)CC1` [Example 54, 2-(2-(5-chloro-2-(2-methoxy-4-(4-propionylpiperazin-1-yl)phenylamino)pyrimidin-4-ylamino)phenyl)-N-methyl-2-oxoacetamide], the IC50 in test [1] and in test [2] was over 3000 nM in each case.

On to `CCOC(=O)C(=O)c1ccccc1Nc1nc(Nc2ccc(N3CCC(N(C)C)CC3)cc2OC)ncc1Cl` [Example 1, ethyl 2-(2-(5-chloro-2-(4-(4-(dimethylamino)piperidin-1-yl)-2-methoxyphenylamino)pyrimidin-4-ylamino)phenyl)-2-oxoacetate], for which the IC50 in test [1] and in test [2] was over 3000 nM each time.

Take `COc1cc(N2CCC(N(C)C)CC2)ccc1Nc1ncc(C(F)(F)F)c(Nc2ccccc2C(=O)C(=O)O)n1` [Example 15, 2-(2-((2-((4-(4-(dimethylamino)piperidin-1-yl)-2-methoxyphenyl)amino)-5-(trifluoromethyl)pyrimidin-4-yl)amino)phenyl)-2-oxoacetic acid]: the IC50 in test [1] and in test [2] was over 3000 nM throughout.

As for `COc1ccc(NC(=O)C=C(C)C)cc1Nc1ncc(Cl)c(Nc2ccccc2C(=O)C(=O)N(C)C)n1` [Example 71, N-(3-(5-chloro-4-(2-(2-(dimethylamino)-2-oxoacetyl)phenylamino)pyrimidin-2-ylamino)-4-methoxyphenyl)-3-methylbut-2-enamide], the IC50 in test [1] amounted to 990 nM.

In the case of `COc1cc(N2CCC(N(C)C)CC2)ccc1Nc1ncc(Cl)c(Nc2ccccc2C(=O)C(=O)NC2CNC2)n1` [Example 24, N-(azetidin-3-yl)-2-(2-((5-chloro-2-((4-(4-(dimethylamino)piperidin-1-yl)-2-methoxyphenyl)amino)pyrimidin-4-yl)amino)phenyl)-2-oxoacetamide], the IC50 in test [1] and in test [2] was over 3000 nM each time.

Take `COc1cc(N2CCN(C)CC2)ccc1Nc1ncc(Cl)c(Nc2ccccc2C(=O)C(=O)NC2CC2)n1` [Example 49, 2-(2-(5-chloro-2-(2-methoxy-4-(4-methylpiperazin-1-yl)phenylamino)pyrimidin-4-ylamino)phenyl)-N-cyclopropyl-2-oxoacetamide]: the IC50 in test [1] and in test [2] was over 3000 nM throughout.

On to `C=CC(=O)N1CC(NC(=O)C(=O)c2ccccc2Nc2nc(Nc3ccc(N4CCN(C)CC4)cc3OC)ncc2Cl)C1` [Example 55, N-(1-acryloylazetidin-3-yl)-2-(2-(5-chloro-2-(2-methoxy-4-(4-methylpiperazin-1-yl)phenylamino)pyrimidin-4-ylamino)phenyl)-2-oxoacetamide], for which the IC50 in test [1] and in test [2] was over 3000 nM each time.

Take `C=CC(=O)N1CCC(NC(=O)C(=O)c2ccccc2Nc2nc(Nc3ccc(N4CCN(C)CC4)cc3OC)ncc2Cl)CC1` [Example 56, N-(1-acryloylpiperidin-4-yl)-2-(2-(5-chloro-2-(2-methoxy-4-(4-methylpiperazin-1-yl)phenylamino)pyrimidin-4-ylamino)phenyl)-2-oxoacetamide]: the IC50 in test [1] and in test [2] was over 3000 nM each time.

Consider `COc1cc(N2CCC(N(C)C)CC2)ccc1Nc1ncc(Cl)c(Nc2ccccc2C(=O)C(=O)O)n1` [Example 2, 2-(2-(5-chloro-2-(4-(4-(dimethylamino)piperidin-1-yl)-2-methoxyphenylamino)pyrimidin-4-ylamino)phenyl)-2-oxoacetic acid], for which the IC50 in test [1] and in test [2] was over 3000 nM throughout.

As to `COc1cc(N2CCN(C)CC2)ccc1Nc1ncc(C(F)(F)F)c(Nc2ccccc2C(=O)C(N)=O)n1` [Example 10, 2-(2-((2-((2-methoxy-4-(4-methylpiperazin-1-yl)phenyl)amino)-5-(trifluoromethyl)pyrimidin-4-yl)amino)phenyl)-2-oxoacetamide], the IC50 in test [1] and in test [2] was over 3000 nM in each case.
